Reference: patent US8716284B2, “Adamantyl diamide derivatives and uses of same” (H. Lundbeck A/S, priority 2008, dated 2014)

The molecules below were run against T1, rat metabotropic glutamate receptor 5 (mGluR5) (Rattus norvegicus, UniProt P31424) (assay: Calcium mobilization assay (FLIPR) for negative or positive allosteric activity, HEK 293 cells). Details: HEK293, negative allosteric modulation, inhibition of EC80 glutamate response; read-out: FLIPR maximum inhibition.
T1 construct: expressed in transfected cells; host or cells: HEK 293
T1 sequence (P31424 21-1171 isoform P31424-2 limits assumed): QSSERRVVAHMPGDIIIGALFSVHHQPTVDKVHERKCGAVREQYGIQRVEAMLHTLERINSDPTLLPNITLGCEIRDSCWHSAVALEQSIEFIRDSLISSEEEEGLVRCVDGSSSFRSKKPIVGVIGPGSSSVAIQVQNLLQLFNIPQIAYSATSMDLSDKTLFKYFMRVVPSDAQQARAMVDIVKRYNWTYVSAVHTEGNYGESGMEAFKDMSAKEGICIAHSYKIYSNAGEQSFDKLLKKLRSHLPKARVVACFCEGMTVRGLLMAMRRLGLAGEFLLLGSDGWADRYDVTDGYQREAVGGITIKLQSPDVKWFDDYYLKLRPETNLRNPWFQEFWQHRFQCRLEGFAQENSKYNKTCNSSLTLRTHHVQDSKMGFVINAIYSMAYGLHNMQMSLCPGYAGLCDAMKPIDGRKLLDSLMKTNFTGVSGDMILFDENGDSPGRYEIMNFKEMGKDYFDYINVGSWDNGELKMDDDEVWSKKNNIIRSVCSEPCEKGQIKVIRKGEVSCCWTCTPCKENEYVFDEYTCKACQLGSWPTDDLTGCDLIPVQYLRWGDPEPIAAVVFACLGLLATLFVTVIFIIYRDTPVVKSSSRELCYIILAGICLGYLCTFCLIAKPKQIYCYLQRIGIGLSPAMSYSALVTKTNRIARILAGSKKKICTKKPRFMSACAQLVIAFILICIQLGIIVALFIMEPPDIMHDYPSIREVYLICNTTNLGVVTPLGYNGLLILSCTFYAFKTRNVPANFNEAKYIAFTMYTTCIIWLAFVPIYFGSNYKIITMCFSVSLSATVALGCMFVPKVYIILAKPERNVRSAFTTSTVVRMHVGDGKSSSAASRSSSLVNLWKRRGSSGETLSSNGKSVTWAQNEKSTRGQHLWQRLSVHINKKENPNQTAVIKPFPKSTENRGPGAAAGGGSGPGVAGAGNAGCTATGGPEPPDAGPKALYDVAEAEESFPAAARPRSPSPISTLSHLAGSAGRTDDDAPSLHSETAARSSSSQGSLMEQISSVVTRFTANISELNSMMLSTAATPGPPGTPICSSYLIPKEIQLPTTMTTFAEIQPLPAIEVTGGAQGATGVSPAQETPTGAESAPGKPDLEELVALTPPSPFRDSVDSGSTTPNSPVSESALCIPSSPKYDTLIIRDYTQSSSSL
Assay type: cell-based
Procedure, shortened: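 Peak Fluo-4 calcium signal over 3 min at room temperature, minus basal, fitted by Hill equation, in stable rat mGluR5 HEK 293 cells (HBSS/HEPES pH 7.4, BSA, probenecid). Inhibition scored against EC80 glutamate, potentiation against EC20 glutamate, glutamate given with compound.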

SMILES	Emax [%]
O=C(NC12CC3CC(C1)CC(NC(=O)c1nccc(C(F)(F)F)n1)(C3)C2)c1ccncn1 [Example 196, 4-Trifluoromethyl-pyrimidine-2-carboxylic acid {3-[(pyrimidine-4-carbonyl)-amino]-adamantan-1-yl}-amide]	63 to 99
O=C(NC12CC3CC(C1)CC(NC(=O)c1cccc(F)c1)(C3)C2)c1cccc(F)c1 [Example 15, N,N′-(1,3-adamantylene)bis(3-fluorobenzamide)]	63 to 99
CN(C)C1CCN(c2cccc(C(=O)NC34CC5CC(CC(NC(=O)c6ccccn6)(C5)C3)C4)n2)C1 (stereo not drawn) [Example 199, 6-(3-Dimethylamino-pyrrolidin-1-yl)-pyridine-2-carboxylic acid {3-[(pyridine-2-carbonyl)-amino]-adamantan-1-yl}-amide]	63 to 99
Cc1cncc(C(=O)NC23CC4CC(C2)CC(NC(=O)c2nccc(C(F)(F)F)n2)(C4)C3)n1 [Example 181, 4-Trifluoromethyl-pyrimidine-2-carboxylic acid {3-[(6-methyl-pyrazine-2-carbonyl)-amino]-adamantan-1-yl}-amide]	63 to 99
COc1cccc(C(=O)NC23CC4CC(C2)CC(NC(=O)c2ccccn2)(C4)C3)c1 [Example 80, Pyridine-2-carboxylic acid [3-(3-methoxy-benzoylamino)-adamantan-1-yl]-amide]	63 to 99
Cc1cncc(C(=O)NC23CC4CC(CC(NC(=O)c5cc(F)ccn5)(C4)C2)C3)n1 [Example 171, 6-Methyl-pyrazine-2-carboxylic acid {3-[(4-fluoro-pyridine-2-carbonyl)-amino]-adamantan-1-yl}-amide]	63 to 99
O=C(NC12CC3CC(C1)CC(NC(=O)c1ccn4ccnc4c1)(C3)C2)c1cccc(F)c1 [Example 99, Imidazo[1,2-a]pyridine-7-carboxylic acid [3-(3-fluoro-benzoylamino)-adamantan-1-yl]-amide]	63 to 99
Cc1cccc(C(=O)NC23CC4CC(C2)CC(NC(=O)c2ccno2)(C4)C3)n1 [Example 31, 6-Methyl-pyridine-2-carboxylic acid {3-[(isoxazole-5-carbonyl)-amino]-adamantan-1-yl}-amide]	63 to 99
Cc1cccc(C(=O)NC23CC4CC(C2)CC(NC(=O)c2cccc(N5CCC(O)C5)n2)(C4)C3)n1 (stereo not drawn) [Example 205, 6-(3-Hydroxy-pyrrolidin-1-yl)-pyridine-2-carboxylic acid{3-[(6-methyl-pyridine-2-carbonyl)-amino]-adamantan-1-yl}-amide]	63 to 99
Cn1ccc(C(=O)NC23CC4CC(CC(NC(=O)c5ccccn5)(C4)C2)C3)n1 [Example 76, Pyridine-2-carboxylic acid {3-[(1-methyl-1H-pyrazole-3-carbonyl)-amino]-adamantan-1-yl}-amide]	63 to 99
CCOc1cccc(C(=O)NC23CC4CC(C2)CC(NC(=O)c2cncc(C)n2)(C4)C3)c1 [Example 147, 6-Methyl-pyrazine-2-carboxylic acid [3-(3-ethoxy-benzoylamino)-adamantan-1-yl]-amide]	70 to 99
Cc1nc(C(=O)NC23CC4CC(CC(NC(=O)c5cnccn5)(C4)C2)C3)cs1 [Example 187, Pyrazine-2-carboxylic acid {3-[(2-methyl-thiazole-4-carbonyl)-amino]-adamantan-1-yl}-amide]	63 to 99
Cc1cccc(C(=O)NC23CC4CC(C2)CC(NC(=O)c2cnc5ccccc5n2)(C4)C3)n1 [Example 34, Quinoxaline-2-carboxylic acid {3-[(6-methyl-pyridine-2-carbonyl)-amino]-adamantan-1-yl}-amide]	63 to 99
Cc1cccc(C(=O)NC23CC4CC(CC(NC(=O)c5ccc6ocnc6c5)(C4)C2)C3)n1 [Example 122, Benzoxazole-5-carboxylic acid {3-[(6-methyl-pyridine-2-carbonyl)-amino]-adamantan-1-yl}-amide]	70 to 99
Cc1ccc2nc(C(=O)NC34CC5CC(CC(NC(=O)c6cccc(F)c6)(C5)C3)C4)cn2c1 [Example 102, 6-Methyl-imidazo[1,2-a]pyridine-2-carboxylic acid [3-(3-fluoro-benzoylamino)-adamantan-1-yl]-amide]	63 to 99
O=C(NC12CC3CC(C1)CC(NC(=O)c1cccc(NCCCO)n1)(C3)C2)c1ccccn1 [Example 203, 6-(3-Hydroxy-propylamino)-pyridine-2-carboxylic acid {3-[(pyridine-2-carbonyl)-amino]-adamantan-1-yl}-amide]	63 to 99

Continued, values first:

Emax [%]	SMILES
63 to 99	O=C(NC12CC3CC(C1)CC(NC(=O)c1ccncn1)(C3)C2)c1ccccn1 [Example 60, Pyrimidine-4-carboxylic acid {3-[(pyridine-2-carbonyl)-amino]-adamantan-1-yl}-amide]
63 to 99	O=C(NC12CC3CC(C1)CC(NC(=O)c1cn4ccccc4n1)(C3)C2)c1cccc(F)c1 [Example 100, Imidazo[1,2-a]pyridine-2-carboxylic acid [3-(3-fluoro-benzoylamino)-adamantan-1-yl]-amide]
70 to 99	COc1cccc(C(=O)NC23CC4CC(C2)CC(NC(=O)c2cncc(C)n2)(C4)C3)c1 [Example 146, 6-Methyl-pyrazine-2-carboxylic acid [3-(3-methoxy-benzoylamino)-adamantan-1-yl]-amide]
63 to 99	Cc1cccc(C(=O)NC23CC4CC(C2)CC(NC(=O)c2cccc(N5CCOCC5)n2)(C4)C3)n1 [Example 22, 6-Morpholin-4-yl-pyridine-2-carboxylic acid-{3-[(6-methyl-pyridine-2-carbonyl)-amino]-adamantan-1-yl}-amide]
70 to 99	COc1cc(C(=O)NC23CC4CC(C2)CC(NC(=O)c2cncc(C)n2)(C4)C3)ccn1 [Example 154, 6-Methyl-pyrazine-2-carboxylic acid {3-[(2-methoxy-pyridine-4-carbonyl)-amino]-adamantan-1-yl}-amide]
63 to 99	CN1CCN(c2cccc(C(=O)NC34CC5CC(CC(NC(=O)c6ccccn6)(C5)C3)C4)n2)CC1 [Example 198, 6-(4-Methyl-piperazin-1-yl)-pyridine-2-carboxylic acid {3-[(pyridine-2-carbonyl)-amino]-adamantan-1-yl}-amide]
70 to 99	Cc1nc(C(=O)NC23CC4CC(CC(NC(=O)c5ccccn5)(C4)C2)C3)cs1 [Example 110, Pyridine-2-carboxylic acid {3-[(2-methyl-thiazole-4-carbonyl)-amino]-adamantan-1-yl)-amide]
63 to 99	COc1ccc(C(=O)NC23CC4CC(C2)CC(NC(=O)c2ccccn2)(C4)C3)cc1 [Example 81, Pyridine-2-carboxylic acid [3-(4-methoxy-benzoylamino)-adamantan-1-yl]-amide]
63 to 99	Cc1cncc(C(=O)NC23CC4CC(CC(NC(=O)c5cc(Br)ccn5)(C4)C2)C3)n1 [Example 176, 6-Methyl-pyrazine-2-carboxylic acid {3-[(4-bromo-pyridine-2-carbonyl)-amino]-adamantan-1-yl}-amide]

Same assay, conditions: positive modulation, increase in EC20 glutamate response

EC50 [nM]	maximum modulation [%]	SMILES
300	170	Cc1cncc(C(=O)NC23CC4CC(CC(NC(=O)c5cc(-c6ccc(F)cc6)ncn5)(C4)C2)C3)n1 [Example 256, 6-(4-Fluoro-phenyl)-pyimidine-4-carboxylic acid {3-[(6-methyl-pyrazine-2-carbonyl)-aminpo]-adamantan-1-yl}-amide]
